Source: US7871981B2, “Inhibition of cell motility, angiogenesis, and metastasis” (The United States of America as represented by the …, priority 1999, dated 2011)

Experiments:
HMEC-1 cells = assay: HMEC-1 cell migration, modified Boyden chamber; assay type: cell-based, human; details: VEGF
Experimental: The migration assay of HUVE and HMEC-1 cells in modified Boyden chambers was adapted from previously described procedures (Murohara et al., Thromb. Vasc. Biol., 19: 1156-61 (1999), Malinda et al., FASEB J., 13: 53-62 (1999)). In brief, Biocoat Cell Environment control inserts (8 micron pore size; Becton Dickinson) were coated with 0.1% gelatin (Sigma) for at least 1 hour at 37° C. and air dried. Lower chambers contained 0.7 ml RPMI+0.1% BSA, to which 20 ng/ml HGF and/or 300 nM Grb2 inhibitors were added. Cells were pre-treated with the indicated concentrations of Grb2 inhibitors for 18-24 hours, trypsinized, washed twice in RPMI+0.1% BSA, added to upper chambers (5×10^4 cells/well) with or without inhibitors in a final volume of 0.5 ml, and incubated for 4 h at 37° C. Cells on the upper surface of each filter were removed with a cotton swab, while cells that had traversed to the bottom surface of the filter were fixed and stained using Diff-Quik (Dade Diagnostics) and counted using a 10× objective. Mean values from 4 randomly selected fields (1×1.4 mm) were calculated for each of triplicate wells per experimental condition. Shown in FIG. 6 is the ratio of growth factor-treated to control migrating cells designated on the y-axis as “Migration (Fold Increase)” or as the mean number of cells per optical field in FIGS. 8-11.

HMVE cells = assay: HMVE cell proliferation; assay type: cell-based, human
Experimental: HUVE or HMVE cells were seeded per triplicate in type I collagen-coated 48-well plates (Biocoat) (3000 cells/well) in […] of complete EGM-Bullet Kit medium (BioWhittaker, Walkersville, Md.), allowed to attach for 4 hr and incubated overnight with or without the indicated concentrations of peptide 2. The cultures were rinsed twice in serum-free medium and incubated with EBM medium (BioWhittaker) supplemented with 50 μg/ml heparin, 50 μg/ml ascorbic acid and 10% FCS. After either 4 days (HUVE) or 5 days (HMVE), cells were harvested with trypsin/EDTA and counted with an hemocytometer. The mean number of cells per ml was calculated from 3 independent measures for each of triplicate wells per experimental condition and compared to controls using the Student's unpaired t-test. Results set forth in FIG. 12 are described as the ratio of growth factor-treated to control proliferating cells designated on the y-axis as “Proliferation (Fold Increase)”.

PC3M cells = assay: PC3M cell invasion across Matrigel-coated Transwell filters; assay type: cell-based, human; details: increasing concentrations, with or without HGF 40 ng/ml, 30 h
Experimental: After serum deprivation and pre-treatment for 16 hrs, PC3M cells were assayed in cell culture inserts (BD Biosciences), 8 micron-pore-size polyethylene terephthalate membrane with Falcon cell culture inserts (Becton Dickinson). Pre-treated cells were trypsinized and counted; a total of 1×10^5 cells in serum free medium (500 microliters) were added to the upper chamber, and 500 microliters of serum free media with the relative concentration of C90 and HGF were added to the lower chamber. […] Then the cells in the inside of the upper chamber were removed with a cotton swab and cell on the other side of the membrane were fixed and stained using Diff-Quick (Dade Diagnostics, Deerfield, Ill.). Photographs of […] random fields were taken and cells were counted by bright field microscopy using a 10× objective. Mean values from four randomly selected fields (1×1.4 mm) were calculated for each of triplicate wells per experimental condition.
FIG. 13B depicts bar graphs of PC3M cell invasion across Matrigel-coated Transwell filters in the presence (filled bars) or absence (unfilled bars) of HGF (40 ng/ml, 30 h).

PC3M-luc cells = assay: Subcutaneous tumor model (spontaneous metastasis), PC3M-luc xenograft, bioluminescence imaging; assay type: in vivo, SCID/beige mice; details: cells pre-treated 24 h with 1 micromolar
Experimental: PC3M-luc cells were pre-treated for 24 hrs with 1 micromolar C90, then trypsinized, washed in PBS and spun down at 650 rpm to be resuspended in HBSS at the appropriate cell density for injection (1×10^6 cells). Injection was boosted with 10 micromolar C-90. Cell where then injected in the right flank SCID/beige mice (Taconic Inc., Germantown, N.Y.). On indicated days, mice were injected with 150 mg/kg of D-luciferin (potassium salt, Xenogen Corp., Alameda, Calif.) and placed for imaging in the In vivo Imaging System (Xenogen) with total imaging time of 1 or 5 minutes. Total body bioluminescence was quantified by integrating the photonic flux (photons per second) through a region of interest drawn around each mouse.
(§1) Cells prepared for xenograft injections were pretreated with C-90 for 24 h. Cells were injected in to mice (5 per group) by either tail vein (B16-luc, induced metastasis model) or subcutaneously (PC3M-luc, spontaneous metastasis model). Imaging of the PC3M cell metastases in lungs ex vivo (FIG. 14A)) correlated with earlier scans of intact animals (data not shown). Units are proportional to photons emitted within a defined time interval (total flux).

B16-luc cells = assay: Tail vein model (induced metastasis), B16-luc, bioluminescence imaging; assay type: in vivo, SCID/beige mice; details: single 24 h pre-treatment, three week period
Experimental: B16-luc cells were pre-treated for 24 hrs with 1 micromolar C90, then trypsinized, washed in PBS and spun down at 650 rpm to be resuspended in HBSS at the appropriate cell density for injection (1×10^6 cells). Injection was boosted with 10 micromolar C90. Cell where then injected in the dorsal tail vein of severe combined immunodeficient (SCID)/beige mice (Taconic Inc., Germantown, N.Y.).
as §1

NC(=O)C[C@H](NC(=O)C1(NC(=O)[C@H](Cc2ccc(C(C(=O)O)C(=O)O)cc2)NC(=O)C(=O)O)CCCCC1)C(=O)NCCCc1cccc2ccccc12 [peptide 2, (N-oxalyl-4-malonyl)-Phe-Ac6c-Asn-NH-(3-naphthalen-1-yl-propyl)]
VEGF-induced cell migration (HMEC-1 cells): significantly (p<0.001) reverted | HMVE cell growth (HMVE cells; peptide 30 nM, presence and absence of growth factors): basically resistant | HMVE cell growth (HMVE cells; peptide 300 nM): highly significant (p<0.001) inhibition of cell growth | PC3M cell invasiveness in vitro (PC3M cells): dose-dependent inhibition | primary tumor growth (mass, volume ex vivo) (PC3M-luc cells): did not affect primary tumor growth | metastatic rate (lung metastases ex vivo, total flux) relative to untreated control cells (PC3M-luc cells; injection boosted with 10 micromolar): significantly reduced the metastatic rate | ability to form lung metastases relative to untreated control cells (B16-luc cells): significantly reduced ability to form lung metastases
